{
  "source": "patent US10865191B2",
  "about": "“Heterocyclic compounds useful as modulators of TNF alpha” (BRISTOL-MYERS SQUIBB COMPANY, priority 2015, dated 2020)",
  "data": [
    {"target": "TNFα (Homo sapiens, UniProt P01375)", "sequence (P01375 77-233 limits assumed)": "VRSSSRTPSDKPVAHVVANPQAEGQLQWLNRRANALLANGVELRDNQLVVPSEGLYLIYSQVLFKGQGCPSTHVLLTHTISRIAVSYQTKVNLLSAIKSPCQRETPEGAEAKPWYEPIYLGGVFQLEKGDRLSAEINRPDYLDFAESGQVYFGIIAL", "assay": "TNF induced HEK-Blue assay (NF-kB-driven secreted alkaline phosphatase reporter)", "assay_type": "cell-based", "details": "TNFα 0.5 ng/mL, HEK-Blue-CD40L cells, 18 h; read-out: TNF induced HEK-Blue assay IC50 value", "outline": "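HEK-Blue-CD40L cells (NF-kB-driven SEAP reporter), 20,000/well, added after 30 min pre-incubation of compound (0.004–25 μM final) with TNFα 0.5 ng/mL final at 37 °C; 18 h incubation. SEAP read with QUANTI-Blue at 620 nm; IC50 from 4-parameter logistic fit, normalized to unstimulated and stimulated DMSO controls.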", "units": {"IC50": "nM"}, "values": [
      {"smiles": "CNc1ccncc1-c1ccc(F)c([C@@H](C)Nc2c(Cl)cnc3ccccc23)c1", "note": "[Example 523, (R)-3-chloro-N-(1-(2-fluoro-5-(4-(methylamino)pyridin-3-yl)phenyl)ethyl)quinolin-4-amine]", "IC50": "< 1000"},
      {"smiles": "COc1ncc(-c2ccc(F)c([C@@H](C)Nc3c(Cl)cnc4ccccc34)c2)cc1N", "note": "[Example 521, (R)—N-(1-(5-(5-amino-6-methoxypyridin-3-yl)-2-fluorophenyl)ethyl)-3-chloroquinolin-4-amine]", "IC50": "< 1000"},
      {"smiles": "Cc1nc2ccc(-c3cnc(C(C)(C)O)nc3)cc2c(N[C@@H](c2cc(C#N)ccc2F)C(F)F)c1Cl", "note": "[Example 380, (S)-3-(1-((3-chloro-6-(2-(2-hydroxypropan-2-yl)pyrimidin-5-yl)-2-methylquinolin-4-yl)amino)-2,2-difluoroethyl)-4-fluorobenzonitrile]", "IC50": "< 1000"},
      {"smiles": "COc1ccc(F)c([C@@H](C)Nc2ccnc3ccc(Cl)cc23)c1", "note": "[Example 456, (R)-6-chloro-N-(1-(2-fluoro-5-methoxyphenyl)ethyl)quinolin-4-amine]", "IC50": "10000 to 25000"},
      {"smiles": "Cc1nc2ccc(-c3cnc(N4CCOCC4)nc3)cc2c(N[C@H](C)c2cc(C(N)=O)ccc2F)c1Cl", "note": "[Example 313, (R)-3-(1-((3-chloro-2-methyl-6-(2-morpholinopyrimidin-5-yl)quinolin-4-yl)amino)ethyl)-4-fluorobenzamide]", "IC50": "< 1000"},
      {"smiles": "C[C@H](Nc1c(Cl)cnc2ccc(-c3cnc(C(C)(C)O)nc3)cc12)[C@H]1CCCN(S(=O)(=O)c2cnn(C)c2)C1", "note": "[Example 564, 2-(5-(3-chloro-4-(((S)-1-((S)-1-((1-methyl-1H-pyrazol-4-yl)sulfonyl)piperidin-3-yl)ethyl)amino)quinolin-6-yl)pyrimidin-2-yl)propan-2-ol]", "IC50": "1000 to 10000"},
      {"smiles": "Cc1ncc(-c2ccc(F)c([C@@H](C)Nc3c(Cl)cnc4ccccc34)c2)cn1", "note": "[Example 535, (R)-3-chloro-N-(1-(2-fluoro-5-(2-methylpyrimidin-5-yl)phenyl)ethyl)quinolin-4-amine]", "IC50": "< 1000"},
      {"smiles": "CC(Nc1c(Cl)cnc2cc(F)c(-c3cnc(N4CCN(CC(=O)O)CC4)nc3)cc12)c1ccccc1F", "note": "(single isomer, unassigned) [Example 242, 2-(4-(5-(3-chloro-7-fluoro-4-((1-(2-fluorophenyl)ethyl)amino)quinolin-6-yl)pyrimidin-2-yl)piperazin-1-yl)acetic acid]", "IC50": "< 1000"},
      {"smiles": "C[C@@H](Nc1c(Cl)cnc2ccc(-c3cnc(C(C)(C)O)nc3)cc12)c1cc(-n2cnnc2)ccc1F", "note": "[Example 371, (R)-2-(5-(3-chloro-4-((1-(2-fluoro-5-(4H-1,2,4-triazol-4-yl)phenyl)ethyl)amino)quinolin-6-yl)pyrimidin-2-yl)propan-2-ol]", "IC50": "< 1000"},
      {"smiles": "CCOC(=O)C1CCN(c2ncc(-c3cc4c(NC(C)c5ccccc5F)c(Cl)cnc4cc3F)cn2)CC1", "note": "(single isomer, unassigned) [Example 243, ethyl-1-(5-(3-chloro-7-fluoro-4-((1-(2-fluorophenyl)ethyl)amino)quinolin-6-yl)pyrimidin-2-yl)piperidine-4-carboxylate]", "IC50": "< 1000"},
      {"smiles": "CC(Nc1c(Cl)cnc2ccc(-c3cnc(N4CCNC(=O)C4)nc3)cc12)c1nc(C(N)=O)ccc1F", "note": "(single isomer, unassigned) [Example 26, 6-(1-((3-chloro-6-(2-(3-oxopiperazin-1-yl)pyrimidin-5-yl)quinolin-4-yl)amino)ethyl)-5-fluoropicolinamide]", "IC50": "< 1000"},
      {"smiles": "Cc1nc2ccc(-c3cnc(C(C)(C)O)nc3)cc2c(N[C@H](C)c2cc(OCCO)ccc2F)c1Cl", "note": "[Example 435, (R)-2-(5-(3-chloro-4-((1-(2-fluoro-5-(2-hydroxyethoxy)phenyl)ethyl)amino)-2-methylquinolin-6-yl)pyrimidin-2-yl)propan-2-ol]", "IC50": "< 1000"},
      {"smiles": "CC(=O)c1ccc(F)c([C@@H](C)Nc2c(Cl)cnc3ccc(-c4cnc(C(C)(C)O)nc4)cc23)c1", "note": "[Example 409, (R)-1-(3-(1-((3-chloro-6-(2-(2-hydroxypropan-2-yl)pyrimidin-5-yl)quinolin-4-yl)amino)ethyl)-4-fluorophenyl)ethan-1-one]", "IC50": "< 1000"},
      {"smiles": "COc1cc(-c2ccc(F)c([C@@H](C)Nc3c(Cl)cnc4ccccc34)c2)c(F)cn1", "note": "[Example 527, (R)-3-chloro-N-(1-(2-fluoro-5-(5-fluoro-2-methoxypyridin-4-yl)phenyl)ethyl)quinolin-4-amine]", "IC50": "1000 to 10000"},
      {"smiles": "Cc1ccc2c(CCC(C)Nc3c(Cl)cnc4ccc(-c5cnc(C(C)(C)O)nc5)cc34)c[nH]c2c1", "note": "(racemic) [Example 141, 2-(5-(3-chloro-4-((4-(6-methyl-1H-indol-3-yl)butan-2-yl)amino)quinolin-6-yl)pyrimidin-2-yl)propan-2-ol]", "IC50": "10000 to 25000"},
      {"smiles": "Cc1nc2cc(F)c(-c3cnc(C(C)(C)O)nc3)cc2c(N[C@H](C)c2cc(CC(N)=O)ccc2F)c1Cl", "note": "[Example 554, (R)-2-(3-(1-((3-chloro-7-fluoro-6-(2-(2-hydroxypropan-2-yl)pyrimidin-5-yl)-2-methylquinolin-4-yl)amino)ethyl)-4-fluorophenyl)acetamide]", "IC50": "< 1000"},
      {"smiles": "CC(Nc1c(Cl)cnc2ccc(-c3ccc(C(C)(C)O)cc3)cc12)c1ccncc1", "note": "(racemic) [Example 176, 2-(4-(3-chloro-4-((1-(pyridin-4-yl)ethyl)amino)quinolin-6-yl)phenyl)propan-2-ol]", "IC50": "< 1000"},
      {"smiles": "CCOC(=O)c1nc2ccc(-c3ccc(C#N)nc3)cc2c(Nc2cc(C)ccc2C)c1Cl", "note": "[Example 5, ethyl 3-chloro-6-(6-cyanopyridin-3-yl)-4-((2,5-dimethylphenyl)amino)quinoline-2-carboxylate]", "IC50": "1000 to 10000"},
      {"smiles": "CCN1CCC[C@H]([C@H](C)Nc2c(Cl)cnc3ccc(-c4cnc(C(C)(C)O)nc4)cc23)C1", "note": "[Example 105, 2-(5-(3-chloro-4-(((S)-1-((S)-1-ethylpiperidin-3-yl)ethyl)amino)quinolin-6-yl)pyrimidin-2-yl)propan-2-ol]", "IC50": "< 1000"},
      {"smiles": "CC(Nc1c(Cl)cnc2ccc(-c3ccc(C(C)(C)O)cc3)cc12)c1ccon1", "note": "(racemic) [Example 174, 2-(4-(3-chloro-4-((1-(isoxazol-3-yl)ethyl)amino)quinolin-6-yl)phenyl)propan-2-ol]", "IC50": "10000 to 25000"},
      {"smiles": "C=Cc1ccc(F)c(C(CC)Nc2c(Cl)cnc3ccc(-c4cnc(C(C)(C)O)nc4)cc23)n1", "note": "(racemic) [Example 126, 2-(5-(3-chloro-4-((1-(3-fluoro-6-vinylpyridin-2-yl)propyl)amino)quinolin-6-yl)pyrimidin-2-yl)propan-2-ol]", "IC50": "< 1000"},
      {"smiles": "C[C@H](Nc1c(Cl)cnc2ccc(-c3cnc(C(C)(C)O)nc3)cc12)[C@H]1CCCN(c2cncnc2)C1", "note": "[Example 567, 2-(5-(3-chloro-4-(((S)-1-((S)-1-(pyrimidin-5-yl)piperidin-3-yl)ethyl)amino)quinolin-6-yl)pyrimidin-2-yl)propan-2-ol]", "IC50": "1000 to 10000"},
      {"smiles": "C[C@@H](Nc1c(Cl)cnc2ccc(-c3cnc(NC4(C(N)=O)CC4)nc3)cc12)c1ccccc1F", "note": "[Example 587, (R)-1-((5-(3-chloro-4-((1-(2-fluorophenyl)ethyl)amino)quinolin-6-yl)pyrimidin-2-yl)amino)cyclopropane-1-carboxamide]", "IC50": "< 1000"},
      {"smiles": "Cc1nc2ccc(-c3cnc(C(C)(C)O)nc3)cc2c(N[C@H](C)c2cc(OCC(=O)O)ccc2F)c1Cl", "note": "[Example 439, (R)-2-(3-(1-((3-chloro-6-(2-(2-hydroxypropan-2-yl)pyrimidin-5-yl)-2-methylquinolin-4-yl)amino)ethyl)-4-fluorophenoxy)acetic acid]", "IC50": "< 1000"},
      {"smiles": "CC(Nc1c(Cl)cnc2cc(F)c(-c3ccc(C4(CO)CC4)cc3)cc12)c1ccccc1F", "note": "(stereo not shown) [Example 265, (1-(4-(3-chloro-7-fluoro-4-((1-(2-fluorophenyl)ethyl)amino)quinolin-6-yl)phenyl)cyclopropyl) methanol]", "IC50": "< 1000"},
      {"smiles": "C[C@@H](Nc1c(Cl)cnc2cc(F)c(-c3cnc(C(C)(C)O)nc3)nc12)c1cc(CO)ccc1F", "note": "[Example 505, (R)-2-(5-(7-chloro-3-fluoro-8-((1-(2-fluoro-5-(hydroxymethyl)phenyl)ethyl)amino)-1,5-naphthyridin-2-yl)pyrimidin-2-yl)propan-2-ol]", "IC50": "< 1000"},
      {"smiles": "CNC(=O)c1nc2ccc(-c3ccc(C#N)nc3)cc2c(Nc2cc(C)ccc2C)c1Cl", "note": "[Example 33, 3-chloro-6-(6-cyanopyridin-3-yl)-4-((2,5-dimethylphenyl)amino)-N-methylquinoline-2-carboxamide]", "IC50": "1000 to 10000"},
      {"smiles": "C[C@@H](Nc1c(Cl)cnc2ccc(-c3cnc(C(C)(C)O)nc3)cc12)c1cc(-c2cnn(CC(=O)O)c2)ccc1F", "note": "[Example 346, (R)-2-(4-(3-(1-((3-chloro-6-(2-(2-hydroxypropan-2-yl)pyrimidin-5-yl)quinolin-4-yl)amino)ethyl)-4-fluorophenyl)-1H-pyrazol-1-yl)acetic acid]", "IC50": "1000 to 10000"},
      {"smiles": "C=Cc1ccc(F)c([C@H](Nc2c(Cl)cnc3cc(F)c(-c4cnc(C(C)(C)O)nc4)nc23)C(F)F)c1", "note": "[Example 495, (S)-2-(5-(7-chloro-8-((2,2-difluoro-1-(2-fluoro-5-vinylphenyl)ethyl)amino)-3-fluoro-1,5-naphthyridin-2-yl)pyrimidin-2-yl)propan-2-ol]", "IC50": "< 1000"},
      {"smiles": "CC(Nc1c(Cl)cnc2cc(F)c(-c3cnc(N4CCC(CC(=O)O)CC4)nc3)cc12)c1ccccc1F", "note": "(racemic) [Example 266, 2-(1-(5-(3-chloro-7-fluoro-4-((1-(2-fluorophenyl)ethyl)amino)quinolin-6-yl)pyrimidin-2-yl)piperidin-4-yl)acetic acid]", "IC50": "< 1000"},
      {"smiles": "CC(C)(O)c1ncc(-c2ccc3ncc(Cl)c(NC(c4ccccc4)C(F)F)c3c2)cn1", "note": "(racemic) [Example 57, 2-(5-(3-chloro-4-((2,2-difluoro-1-phenylethyl)amino)quinolin-6-yl)pyrimidin-2-yl)propan-2-ol]", "IC50": "< 1000"}
    ]}
  ]
}
